Test system: IgE-immunized Rat Peritoneal Mast Cells
Test: cells
Settings: Mast cell, read-out: % inhibition of Histamine Release

SMILES: CCOC(=O)N1CCC(=C2c3ccc(Cl)cc3CCc3cccnc32)CC1 [Loratadine, ethyl 4-(8-chloro-5,6-dihydro-11H-benzo[5,6]cyclohepta[1,2-b]pyridin-11-ylidene)-1-piperidinecarboxylate]
- inhibition at 0.3 µM: 19.8 ± 5.77%
- inhibition at 1 µM: 27.1 ± 4.72%
- inhibition at 3 µM: 45.8 ± 9.26%
- inhibition at 10 µM: 73.3 ± 16.8%

— patent EP0978281B1, “EYEDROPS CONTAINING A LORATIDINE METABOLITE” (Schering-Plough Kabushiki Kaisha, priority 1997, dated 1998)
